Data set [1] in a line: In vitro metabolic stability in CES1−/− mouse brain homogenate. It counts as in vitro ADME. The following applies: for remaining at 1 h, 10 μM: C57BL/6, mouse; for Stability in mouse (% remaining at 1 h) Brain: 10 μM, 37 °C, mean ± std error, n = 3.
The nature of data set [2]: In vitro metabolic stability in CES1−/− mouse plasma. The following applies: C57BL/6, mouse. It counts as in vitro ADME.
The nature of data set [3]: Time-dependent oral PK in CES1−/− mice. Type of data set: in vivo, mouse. The following applies: PO 10 mg/kg DPTIP equivalent.
Data set [4] in a line: In vitro metabolic stability in CES1−/− mouse liver homogenate. It counts as in vitro ADME. The following applies: C57BL/6, mouse.
Data set [5] is classed as in vivo, mouse. The following applies: high resolution mass spectrometry, after oral dosing.
A further data set is described as follows: Single time-point. To be noted: CES1−/− mice, PO 10 mg/kg DPTIP equivalent, 2 h post dose. It counts as in vivo, mouse.
In another data set the target is T1, nSMase2 (Mus musculus, UniProt Q9JJY3).
T1 sequence (Q9JJY3 1-655): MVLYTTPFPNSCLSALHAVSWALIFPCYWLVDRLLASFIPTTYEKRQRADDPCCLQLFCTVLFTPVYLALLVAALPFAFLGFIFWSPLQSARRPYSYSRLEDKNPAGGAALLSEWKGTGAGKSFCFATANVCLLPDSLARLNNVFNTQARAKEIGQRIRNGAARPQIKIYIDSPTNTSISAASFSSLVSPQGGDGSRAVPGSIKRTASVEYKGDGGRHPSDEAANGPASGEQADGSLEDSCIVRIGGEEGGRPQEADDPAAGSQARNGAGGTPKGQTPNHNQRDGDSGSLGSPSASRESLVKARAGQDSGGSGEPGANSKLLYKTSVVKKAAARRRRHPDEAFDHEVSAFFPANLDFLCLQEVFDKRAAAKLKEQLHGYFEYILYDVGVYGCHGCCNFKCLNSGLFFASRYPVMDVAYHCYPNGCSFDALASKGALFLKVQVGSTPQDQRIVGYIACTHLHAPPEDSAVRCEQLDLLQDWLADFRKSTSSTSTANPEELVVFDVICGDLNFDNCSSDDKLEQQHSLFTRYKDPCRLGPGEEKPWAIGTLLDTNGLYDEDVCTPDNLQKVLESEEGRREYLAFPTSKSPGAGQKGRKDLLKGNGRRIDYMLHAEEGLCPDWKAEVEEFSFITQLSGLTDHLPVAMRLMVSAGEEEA
The data set is described as follows: nSMase2 activity in striata of IL-1β-injected mice. Type of data set: in vivo. To be noted: PO 3 and 10 mg/kg DPTIP equivalent, dose dependent, 4 h post IL-1β.

For data set [6] the following is noted: rats, dose dependent; cited from earlier work.

Here are results for 14 molecules from article PMC9980655 (Journal of medicinal chemistry, 2022).

For the molecule `COc1cc(-c2nc(-c3ccccc3)c(-c3cccs3)[nH]2)cc(OC)c1OC(=O)N1CCC(N2CCCCC2)CC1` [Compound P1, 2,6-Dimethoxy-4-(4-phenyl-5-(thiophen-2-yl)-1H-imidazol-2-yl)phenyl [1,4’-bipiperidine]-1’-carboxylate], the fraction remaining at 1 h, 10 μM in data set [1] (brain homogenate) was ≥ 50%; in data set [2] (plasma), > 75%; in data set [4] (tissue homogenate), > 75%. The “AUC0-t of intact prodrug in brain” value in data set [3] stood at 494.6 pmol·h/g.
On to `CCCCCC(=O)Oc1c(OC)cc(-c2nc(-c3ccccc3)c(-c3cccs3)[nH]2)cc1OC` [Compound P2, 2,6-Dimethoxy-4-(4-phenyl-5-(thiophen-2-yl)-1H-imidazol-2-yl)phenyl hexanoate], for which the amount remaining at 1 h, 10 μM in data set [1] (CES1−/− mouse brain homogenate) was ≥ 50%; in data set [2] (CES1−/− mouse plasma), < 30%; in data set [4] (CES1−/− mouse liver homogenate), < 25%.
`COc1cc(-c2nc(-c3ccccc3)c(-c3cccs3)[nH]2)cc(OC)c1OC(C)=O` [Compound P3, 2,6-Dimethoxy-4-(4-phenyl-5-(thiophen-2-yl)-1H-imidazol-2-yl)phenyl acetate]: in data set [1] (CES1−/− mouse brain homogenate), the “Stability in mouse (% remaining at 1 h) Brain” value was “completely metabolized”. Also, the fraction remaining at 1 h, 10 μM was < 30% in data set [2] (CES1−/− mouse plasma) and < 25% in data set [4] (CES1−/− mouse liver homogenate).
For `COc1cc(-c2nc(-c3ccccc3)c(-c3cccs3)[nH]2)cc(OC)c1OC(=O)C(C)(C)C` [Compound P4, 2,6-Dimethoxy-4-(4-phenyl-5-(thiophen-2-yl)-1H-imidazol-2-yl)phenyl pivalate], the amount remaining at 1 h, 10 μM is > 75% in data set [1] (CES1−/− mouse brain homogenate), < 30% in data set [2] (CES1−/− mouse plasma) and < 25% in data set [4] (CES1−/− mouse liver homogenate).
As for `COc1cc(-c2nc(-c3ccccc3)c(-c3cccs3)[nH]2)cc(OC)c1OC(=O)N(C)C` [Compound P5, 2,6-Dimethoxy-4-(4-phenyl-5-(thiophen-2-yl)-1H-imidazol-2-yl)phenyl dimethylcarbamate], the amount remaining at 1 h, 10 μM in data set [1] (brain homogenate), in data set [2] (plasma) and in data set [4] (tissue homogenate) was > 75% throughout.
With `COc1cc(-c2nc(-c3ccccc3)c(-c3cccs3)[nH]2)cc(OC)c1OC(=O)OC(OC(=O)C(C)(C)C)c1ccccc1` (centres unmarked) [Compound P6, (((2,6-Dimethoxy-4-(4-phenyl-5-(thiophen-2-yl)-1H-imidazol-2-yl)phenoxy)carbonyl)oxy)(phenyl)methyl pivalate], the share remaining at 1 h, 10 μM in data set [1] (CES1−/− mouse brain homogenate) was ≥ 50%; in data set [2] (CES1−/− mouse plasma), > 75%; in data set [4] (CES1−/− mouse liver homogenate) it was > 75%.
Take `CCC1CCCC(CC)N1C(=O)Oc1c(OC)cc(-c2nc(-c3ccccc3)c(-c3cccs3)[nH]2)cc1OC` (centres unmarked) [Compound P10, 2,6-Dimethoxy-4-(5-phenyl-4-(thiophen-2-yl)-1H-imidazol-2-yl)phenyl 2,6-diethylpiperidine-1-carboxylate]: in data set [4] (CES1−/− mouse liver homogenate), the amount remaining at 1 h, 10 μM is > 50%.
`COc1cc(-c2nc(-c3ccccc3)c(-c3cccs3)[nH]2)cc(OC)c1OC(=O)N1C2CCCC1CC2` [Compound P12, 2,6-Dimethoxy-4-(5-phenyl-4-(thiophen-2-yl)-1H-imidazol-2-yl)phenyl 8-azabicyclo[3.2.1]octane-8-carboxylate]: the fraction remaining at 1 h, 10 μM in data set [4] (tissue homogenate) was > 75%.
The same measure, in the same setting: the value for `COc1cc(-c2nc(-c3ccccc3)c(-c3cccs3)[nH]2)cc(OC)c1OC(=O)N1C2CCC1CC(N1CCCCC1)C2` (centres unmarked) [Compound P13, 2,6-Dimethoxy-4-(5-phenyl-4-(thiophen-2-yl)-1H-imidazol-2-yl)phenyl 3-(piperidin-1-yl)-8-azabicyclo[3.2.1]octane-8-carboxylate] was > 75%.
For the molecule `COc1cc(-c2nc(-c3ccccc3)c(-c3cccs3)[nH]2)cc(OC)c1OCOP(=O)(O)O` [Compound P15, (2,6-Dimethoxy-4-(4-phenyl-5-(thiophen-2-yl)-1H-imidazol-2-yl)phenoxy) methyl dihydrogen phosphate], in data set [1] (CES1−/− mouse brain homogenate), the “Stability in mouse (% remaining at 1 h) Brain” value is on record as “completely metabolized”. The share remaining at 1 h, 10 μM in data set [4] (CES1−/− mouse liver homogenate) was < 25%.
As to `COc1cc(-c2nc(-c3ccccc3)c(-c3cccs3)[nH]2)cc(OC)c1OCOP(=O)(O)OCOC(=O)OC(C)C` [Compound P16, ((((2,6-Dimethoxy-4-(4-phenyl-5-(thiophen-2-yl)-1H-imidazol-2-yl)phenoxy)methoxy)(hydroxy)phosphoryl)oxy)methyl isopropyl carbonate], the fraction remaining at 1 h, 10 μM in data set [1] (CES1−/− mouse brain homogenate) is > 75%; in data set [4] (CES1−/− mouse liver homogenate) it was < 25%.
With `COc1cc(-c2nc(-c3ccccc3)c(-c3cccs3)[nH]2)cc(OC)c1OC(=O)C1=CN(C)C=CC1` [Compound P17, 2,6-Dimethoxy-4-(4-phenyl-5-(thiophen-2-yl)-1H-imidazol-2-yl)phenyl 1-methyl-1,4-dihydropyridine-3-carboxylate], the “Putative oxidized pyridinium metabolite in brain and plasma” value in data set [5] was “negligible quantities”. For the same molecule, in “Single time-point”, the “Brain level of intact prodrug” value was determined as 3.0 nM and the “Plasma level of intact prodrug” value was found to be 3.9 nM.
As for `CCC1CC(N2CCCCC2)CC(CC)N1C(=O)Oc1c(OC)cc(-c2nc(-c3ccccc3)c(-c3cccs3)[nH]2)cc1OC` (centres unmarked) [Compound P18, 2,6-Dimethoxy-4-(5-phenyl-4-(thiophen-2-yl)-1H-imidazol-2-yl)phenyl 2’,6’-diethyl-[1,4’-bipiperidine]-1’-carboxylate], the share remaining at 1 h, 10 μM in data set [1] (brain homogenate), in data set [2] (plasma) and in data set [4] (tissue homogenate) was > 75% each time. The “Effect on heightened nSMase2 activity in striata caused by IL-1β” value on nSMase2 is reported as “normalized”. The “AUC0-t of intact prodrug in brain” value in data set [3] was determined as 179 pmol·h/g.
Turning to `CC(C)c1cccc(C(C)C)c1OCOP(=O)(O)O` [fospropofol], the “Improvement of oral bioavailability” value in data set [6] is reported as 20–70%.

The term share remaining denotes the share of the starting amount still present when the sample was taken. Higher therefore signals greater stability.
